Measurements from patent US8822699B2, “Heterocyclic compound and use thereof” (Takeda Pharmaceutical Company Limited, priority 2010, dated 2014).
Where two headings read alike, the source gives them in different places.

Tests used:
[1] = system: Aβ42 (soluble Aβ in hippocampi); assay: Aβ42 in hippocampi of mice after oral administration (Aβ ELISA); format: in vivo; details: C57BL/6J mice, 10 mg/kg orally, hippocampi isolated 3 hours after administration, soluble Aβ42 by two-site sandwich ELISA; for Aβ42 production inhibitory activity (% inhibition): 10 mg/kg; for inhibition at 10 mg/kg: Mus musculus, po, 3 h, read-out: Aβ42 production inhibitory activity (% inhibition)
Procedure: C57BL/6J mice (7-10 weeks old) were purchased from CLEA Japan Inc. Mice were housed in groups and kept on a 12 h-light; 12 h-dark schedule. All mice were given ad libitum access to food and water.
Each test compound was reconstituted in solubilization buffer ([DMSO (Wako)]: [10% Cremophor (Nakarai)+30% polyethylene glycol 400 (Wako)+60% 2 mol/L Citrate buffer (Wako)]=1:9) and orally administrated at 10 mg/kg.
Hippocampi was isolated from animals, 3 hours after test compounds were orally administrated. Hippocampi were homogenized in ice-cold Tris-extraction buffer (50 mmol/L Tris-HCl, pH 7.2, 200 mmol/L sodium chloride, 2% protease-free bovine serum albumin, and 0.01% sodium merthiolate) containing protease inhibitor cocktails (Roche, Switzerland). After centrifugation at 15,000 rpm for 15 minutes, the supernatants were subjected to two-site sandwich ELISA to measure amount of soluble Aβ. Aβ42 was quantitated by two-site sandwich ELISA using BNT77, which recognizes Aβ11-28, as a capture antibody and BC05-HRP as a detector antibody, respectively.

[2] = system: Aβ42 production in primary nerve cells; assay: Measurement of amyloid β production inhibition rate using primary nerve cell (Aβ42 sandwich ELISA); format: cell-based; details: primary nerve cells from cerebral cortex of SD rat fetus, cultured 3 days with compound, culture supernatant, sandwich ELISA for Aβ42, read-out: Aβ42 production inhibitory activity IC50
Procedure: Measurement of Amyloid β Production Inhibition Rate Using Primary Nerve Cell
The primary nerve cells were collected from the cerebral cortex of rat fetus (CLEA Japan, Inc.: SD rat, fetal life 17 days of age), and suspended in a neurobasal medium containing B27 supplement, L-glutamine, penicillin-streptomycin (manufactured by Invitrogen) at 500,000 cells/mL. Then, the suspension was seeded in poly L-lysine-coated 96 well plate (manufactured by SUMITOMO BAKELITE) by 100 μL, and cultured at 37° C., 5% CO2 for 7 days. The medium was completely removed, and a new neurobasal medium was added at 75 μL/well. Thereto was added (75 μL/well) a neurobasal medium supplemented with a 2-fold measurement concentration of an evaluation target compound, and the mixture was cultured for 3 days. The culture supernatant was collected from each well, diluted as appropriate, applied to sandwich ELISA between BNT77 antibody-BA27 antibody (for Aβ40) and sandwich ELISA between BNT77 antibody-3005 antibody (for Aβ42), and the amounts of Aβ40 and Aβ42 were measured.
The amyloid β production inhibition rate (%) of the compound was calculated by the following formula. (1−(amyloid β production amount with addition of compound)/(amyloid β production amount without addition of compound))×100
The amyloid β production 50% inhibitory rate (IC50 value) was calculated using the statistical analysis software (SAS Preclinical Package) as the concentration of the compound showing 50% inhibition when the amyloid β production amount without addition of the compound is 100%. In addition, a new neurobasal medium was added (75 μL/well) to the cells after collection of the culture supernatant, and the cells were left standing for about 30 min to reach room temperature. Cell-Titer Glo Luminescent Cell Viability Assay (manufactured by Promega) was added at 75 μL/well, and the plate was shaken for 2 min and reacted for about 10 min.

SMILES | Aβ42 production inhibitory activity (% inhibition) [1] | IC50 [2] | inhibition at 10 mg/kg [1] | IC50 ([2]; Rattus norvegicus, 72 h)
COc1cc(-c2nnc3n2CCCC3(Oc2ccc(C(F)(F)F)cc2)C(C)(C)O)ccc1-c1cnc(C)o1 (centres unmarked) [Example 104, 2-{3-[3-methoxy-4-(2-methyl-1,3-oxazol-5-yl)phenyl]-8-[4-(trifluoromethyl)phenoxy]-5,6,7,8-tetrahydro[1,2,4]triazolo[4,3-a]pyridin-8-yl}propan-2-ol] | 36% | 0.041 µM |  | 
COc1cc(-c2nnc3n2CCCC3(Oc2ccc(Cl)c(C(F)(F)F)c2)C(C)(C)O)ccc1-n1cnc(C)n1 (centres unmarked) [Example 139, 2-{8-[4-chloro-3-(trifluoromethyl)-phenoxy]-3-[3-methoxy-4-(3-methyl-1H-1,2,4-triazol-1-yl)phenyl]-5,6,7,8-tetrahydro-[1,2,4]triazolo[4,3-a]pyridin-8-yl}propan-2-ol] |  |  | 22% | 0.04 µM
COc1cc(-c2nnc3n2CCCC3(Oc2ccc(Cl)c(F)c2)C(C)(C)O)ccc1-c1cnc(C)o1 (centres unmarked) [Example 111, 2-{8-(4-chloro-3-fluorophenoxy)-3-[3-methoxy-4-(2-methyl-1,3-oxazol-5-yl)phenyl]-5,6,7,8-tetrahydro[1,2,4]triazolo[4,3-a]pyridin-8-yl}propan-2-ol] |  | 0.01 µM | 46% | 
COc1nc(-c2nnc3n2CCC[C@]3(Oc2cc(F)c(F)c(F)c2)C(C)(C)O)ccc1-n1cnc(C)c1 [Example 152, 2-{(8R)-3-[6-methoxy-5-(4-methyl-1H-imidazol-1-yl)pyridin-2-yl]-8-(3,4,5-trifluorophenoxy)-5,6,7,8-tetrahydro[1,2,4]triazolo[4,3-a]pyridin-8-yl}propan-2-ol] |  |  | 57% | 0.049 µM
COc1cc(-c2nnc3n2CCCC3(Oc2ccc(F)c(F)c2)C(C)(C)O)ccc1-c1cnc(C)o1 (centres unmarked) [Example 92, 2-{8-(3,4-difluorophenoxy)-3-[3-methoxy-4-(2-methyl-1,3-oxazol-5-yl)phenyl]-5,6,7,8-tetrahydro[1,2,4]triazolo[4,3-a]pyridin-8-yl}propan-2-ol] | 32% |  |  | 0.059 µM
COc1cc(-c2nnn3c2CCCC3(Oc2cc(F)c(F)c(F)c2)C(C)(C)O)ccc1-c1cnc(C)o1 (centres unmarked) [Example 186, 2-{3-[3-methoxy-4-(2-methyl-1,3-oxazol-5-yl)phenyl]-7-(3,4,5-trifluorophenoxy)-4,5,6,7-tetrahydro[1,2,3]triazolo[1,5-a]pyridin-7-yl}propan-2-ol] |  | 0.028 µM | 22% | 
COc1cc(-c2nnc3n2CCCC3(Oc2cc(F)c(F)c(F)c2)C(C)(C)O)ccc1-c1cnc(C)o1 (centres unmarked) [Example 99, 2-{3-[3-methoxy-4-(2-methyl-1,3-oxazol-5-yl)phenyl]-8-(3,4,5-trifluorophenoxy)-5,6,7,8-tetrahydro[1,2,4]triazolo[4,3-a]pyridin-8-yl}propan-2-ol] |  |  | 34% | 0.02 µM
COc1nc(-c2nnc3n2CCCC3(Oc2cc(F)c(F)c(F)c2)C(C)(C)O)ccc1-n1cnc(C)c1 (centres unmarked) [Example 134, 2-{3-[6-methoxy-5-(4-methyl-1H-imidazol-1-yl)pyridin-2-yl]-8-(3,4,5-trifluorophenoxy)-5,6,7,8-tetrahydro[1,2,4]triazolo[4,3-a]pyridin-8-yl}propan-2-ol] |  |  | 31% | 0.042 µM
COc1nc(-c2nnc3n2CCCC3(Oc2ccc(Cl)c(F)c2)C(C)(C)O)ccc1-n1cnc(C)c1 (centres unmarked) [Example 1, 2-{8-(4-chloro-3-fluorophenoxy)-3-[6-methoxy-5-(4-methyl-1H-imidazol-1-yl)pyridin-2-yl]-5,6,7,8-tetrahydro[1,2,4]triazolo[4,3-a]pyridin-8-yl}propan-2-ol] |  |  | 40% | 0.027 µM
COc1cc(-c2nnc3n2CCCC3(Oc2ccc(F)c(F)c2)C(C)(C)O)ccc1-c1cnc(C)o1 (centres unmarked) [Example 124, 2-{8-(3,4-difluorophenoxy)-3-[3-methoxy-4-(2-methyl-1,3-oxazol-5-yl)phenyl]-5,6,7,8-tetrahydro[1,2,4]triazolo[4,3-a]pyridin-8-yl}propan-2-ol] |  | 0.068 µM | 41% | 
COc1cc(-c2nnc3n2CCCC3(OCc2ccc(F)c(F)c2)C(=O)N(C)CC(F)(F)F)ccc1-c1cnc(C)o1 (centres unmarked) [Example 108, 8-[(3,4-difluorobenzyl)oxy]-3-[3-methoxy-4-(2-methyl-1,3-oxazol-5-yl)phenyl]-N-methyl-N-(2,2,2-trifluoroethyl)-5,6,7,8-tetrahydro[1,2,4]triazolo[4,3-a]pyridine-8-carboxamide] |  |  |  | 0.067 µM
COc1cc(-c2nnc3n2CCCC3(Oc2cc(F)c(F)c(F)c2)C(C)(C)O)ccc1-c1ccnc(C)c1 (centres unmarked) [Example 174, 2-{3-[3-methoxy-4-(2-methylpyridin-4-yl)phenyl]-8-(3,4,5-trifluorophenoxy)-5,6,7,8-tetrahydro[1,2,4]triazolo[4,3-a]pyridin-8-yl}propan-2-ol] |  |  |  | 0.044 µM
COc1nc(-c2nnc3n2CCC[C@]3(Oc2cc(F)c(F)c(F)c2)C(C)(C)O)ccc1-n1cnc(C)c1 [Example 187, 2-{(8R)-3-[6-methoxy-5-(4-methyl-1H-imidazol-1-yl)pyridin-2-yl]-8-(3,4,5-trifluorophenoxy)-5,6,7,8-tetrahydro[1,2,4]triazolo[4,3-a]pyridin-8-yl}propan-2-ol 1(+)-mandelate] |  | 0.029 µM |  | 
COc1cc(-c2nnc3n2CCCC3(Cc2ccc(F)c(F)c2)C(C)(C)O)ccc1-c1cnc(C)o1 (centres unmarked) [Example 49, 2-{8-(3,4-difluorobenzyl)-3-[3-methoxy-4-(2-methyl-1,3-oxazol-5-yl)phenyl]-5,6,7,8-tetrahydro[1,2,4]triazolo[4,3-a]pyridin-8-yl}propan-2-ol] |  | 0.031 µM |  | 
COc1nc(-c2nnc3n2CCC[C@]3(Oc2cc(F)c(F)c(F)c2)C(C)(C)O)ccc1-n1cnc(C)c1 [Example 197, 2-{(8R)-3-[6-methoxy-5-(4-methyl-1H-imidazol-1-yl)pyridin-2-yl]-8-(3,4,5-trifluorophenoxy)-5,6,7,8-tetrahydro[1,2,4]triazolo[4,3-a]pyridin-8-yl}propan-2-ol monogentisate] |  | 0.03 µM |  | 
COc1cc(-c2nnc3n2CCCC3(Oc2cc(F)c(F)c(F)c2)C(C)(C)O)ccc1-n1cnc(Cl)c1 (centres unmarked) [Example 165, 2-{3-[4-(4-chloro-1H-imidazol-1-yl)-3-methoxyphenyl]-8-(3,4,5-trifluorophenoxy)-5,6,7,8-tetrahydro[1,2,4]triazolo[4,3-a]pyridin-8-yl}propan-2-ol] |  |  |  | 0.143 µM
COc1cc(-c2nnc3n2CCCC3(C)c2ccc(Cl)cc2)ccc1-c1cnc(C)o1 (single isomer, unassigned) [Example 4, optically active 8-(4-chlorophenyl)-3-[3-methoxy-4-(2-methyl-1,3-oxazol-5-yl)phenyl]-8-methyl-5,6,7,8-tetrahydro[1,2,4]triazolo[4,3-a]pyridine] |  | 0.032 µM |  | 
COc1cc(-c2nnn3c2CCCC3(Oc2cc(F)c(F)c(F)c2)C(C)(C)O)ccc1-c1cnc(C)o1 (centres unmarked) [Example 191, optically active 2-{3-[3-methoxy-4-(2-methyl-1,3-oxazol-5-yl)phenyl]-7-(3,4,5-trifluorophenoxy)-4,5,6,7-tetrahydro[1,2,3]triazolo[1,5-a]pyridin-7-yl}propan-2-ol] |  | 0.008 µM |  | 
COc1cc(-c2nnc3n2CCCC3(CC2CC2)c2ccc(Cl)c(C(F)(F)F)c2)ccc1-n1cnc(C)c1 (centres unmarked) [Example 78, 8-[4-chloro-3-(trifluoromethyl)phenyl]-8-(cyclopropylmethyl)-3-[3-methoxy-4-(4-methyl-1H-imidazol-1-yl)phenyl]-5,6,7,8-tetrahydro[1,2,4]triazolo-[4,3-a]pyridine] |  |  |  | 0.055 µM
